Values joined by “and” are separate entries in the source; they are usually repeats but may differ in a detail not shown here. Identical values can stand only once.
Test system: G-401 tumor spheroids, viability % test/control
Test: Anticancer human tumor G-401 cell line growth inhibition;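 further: spheroids exposed to compound for 7 days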;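 on viability, T/C: 100% = DMSO vehicle-treated spheroids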
Conditions: spheroids with HUVEC and MSC; for viability, T/C: stronger effect = lower value
Source text: Multicellular complex tumor spheroid response to DNA repair inhibitors in combination with DNA-damaging drugs
This study explores the anticancer activities of DNA-damaging drugs and inhibitors of DNA damage repair, both as single agents and in combinations. Complex tumor spheroids comprised of malignant cells, endothelial cells and mesenchymal stem cells served as an in vitro model for human solid tumors. This model system incorporates physiologically relevant features and patient-derived or established malignant cell lines with clinically relevant genetic alterations from many tumor types. Twenty-six patient-derived or established malignant cell lines were evaluated representing sarcoma, melanoma, small cell lung cancer (SCLC), non-small cell lung cancer (NSCLC), as well as bladder, ovarian and pancreatic cancers. The concentration ranges selected for each drug and investigational agent were based upon clinically achievable concentrations if the clinical Cmax of the agent was known.
Compounds. The drugs and compounds olaparib (NSC753686), talazoparib (NSC767125), berzosertib (NSC777718), elimusertib (NSC800525), nedisertib (NSC802822), VX-984 (NSC792969), AZD-1390 (NSC803789), temozolomide (NSC362856), topotecan (NSC609699), trabectedin (NSC813783), staurosporine (NSC755774), and gemcitabine (NSC613327) were obtained from the National Cancer Institute (NCI) Developmental Therapeutics Program Chemical Repository. The FDA-approved anticancer drug set is available from the Developmental Therapeutics Program at https://dtp.cancer.gov/organization/dscb/obtaining/available_plates.htm. […] The stock solutions were prepared in dimethyl sulfoxide (DMSO, Sigma-Aldrich, St. Louis, MO, cat. D2650) at 400-fold the tested concentration and stored at -70 degrees C. Prior to their use, the stock solutions were diluted in fresh medium and the final DMSO concentration in the assay was 0.25% (v/v). All drugs and investigational agents were tested over a range starting from a high concentration at or near the clinical Cmax and decreasing in half-log increments. If the clinical Cmax for an agent had not been determined, the highest concentration tested was 10 microM.
Cell Lines. The patient-derived cancer cell (PDC) lines: 156681-154-R-J1-PDC, 283228-195-R-J1-PDC, 287954-098-R-J1-PDC, 292921-168-R-J2-PDC, 349418-098-R-PDC, 425362-245-T-J1-PDC, 556581-035-R-J1-PDC, and BL0293-F563-PDC were received from the NCI Patient-Derived Models Repository (PDMR, https://pdmr.cancer.gov). The established cell lines HS-SY-2 (RRID:CVCL_8719), MPNST, and SYO-1 (RRID:CVCL_7146) were obtained from the Sloan Kettering Institute. The alveolar soft parts sarcoma cell line ASPS-1 (RRID:CVCL_S738) was established at the NCI and grown from internal seed stocks. The following established cell lines were purchased from the American Type Culture Collection (ATCC, Manassas, VA): G-401 (ATCC, cat. CRL-1441, RRID:CVCL_0270), SW982 (ATCC, cat. HTB-93, RRID:CVCL_1734), VA-ES-BJ (ATCC, cat. CRL-2138, RRID:CVCL_1785), NCI-H719 (ATCC, cat. CRL-5837, RRID:CVCL_1582), NCI-H196 (ATCC, cat. CRL-5823, RRID:CVCL_1509), NCI-H841 (ATCC, cat. CRL-5845, RRID:CVCL_1595), NCI-H1618 (ATCC, cat. CRL-5879, RRID:CVCL_1480), NCI-H1876 (ATCC, cat. CRL-5902, RRID:CVCL_1503), DMS 114 (ATCC, cat. CRL-2066; RRID:CVCL_1174), NCI-H211 (ATCC, cat. CRL-5824; RRID:CVCL_1529), and SW 1271 (ATCC, cat. CRL-2177, RRID:CVCL_1716). The small cell lung cancer cell line COR-L88 was purchased from Sigma-Aldrich (cat. 92031917-1VL, RRID:CVCL_1141). The non-small cell lung cancer cell lines NCI-H226 (RRID:CVCL_1544) and NCI-H322M (RRID:CVCL_1557) were established at the NCI and grown from internal seed stocks. Pooled donor human umbilical vein endothelial cells (HUVEC, Lonza, cat. CC-2519) and human mesenchymal stem cells (hMSC, Lonza, cat. PT-2501) were purchased from Lonza (Walkersville, MD).
Cell Culture. All cells were maintained in an incubator at 37 degrees C and 5% CO2 with 95% humidity. […]

[1] = compound alone, run of 12/02/2019
[2] = compound alone, run of 12/12/2019

| SMILES | viability, T/C (compound 0.0316 µM) | viability, T/C (compound 0.1 µM) | viability, T/C (compound 0.316 µM) | viability, T/C (compound 1 µM) | viability, T/C (compound 3.16 µM) | viability, T/C (compound 10 µM) | IC50 (curve of compound) | viability, T/C (compound 0.00949 µM) | viability, T/C (compound 0.03 µM) | viability, T/C (compound 0.0949 µM) | viability, T/C (compound 0.3 µM) | viability, T/C (compound 0.949 µM) | viability, T/C (compound 3 µM) | also measured |
| --- | --- | --- | --- | --- | --- | --- | --- | --- | --- | --- | --- | --- | --- | --- |
| CC(C)n1c(=O)n(C)c2cnc3cc(F)c(-c4ccc(OCCCN5CCCCC5)nc4)cc3c21 | 87.5% and 105% and 107% | 92.2% and 105% and 104% | 47.9% and 100% and 108% | 90.7% and 101% and 103% | 95.9% and 98.2% and 101% | 67.4% (2×) and 86.7% | > 10000 nM |  |  |  |  |  |  |  |
| CC1COCCN1c1cc(-c2ccnn2C)c2ccnc(-c3ccn[nH]3)c2n1 (stereo not drawn) | 67% and 79% and 90.9% | 34.7% and 42.4% and 56% | 19.1% and 24.4% and 31.2% | 13.1% and 17.3% and 18.1% | 16.2% and 18.7% and 19.8% | 18.1% and 20.2% and 22.3% | 58 nM and 79 nM and 132 nM |  |  |  |  |  |  |  |
| CC[C@@]1(O)C(=O)OCc2c1cc1n(c2=O)Cc2cc3c(CN(C)C)c(O)ccc3nc2-1 |  |  |  |  |  |  |  | 48.8% [middle of 10 runs] | 16% [middle of 10 runs] | 7.7% [middle of 10 runs] | 5.06% [middle of 10 runs] |  |  | viability, T/C (compound 0.003 µM): 78.6% [middle of 10 runs]; IC50 [1]: 8.64 nM [middle of 5 runs]; IC50 [2]: 9.18 nM [middle of 5 runs] |
| CNCc1ccc(-c2cc(-c3nc(-c4ccc(S(=O)(=O)C(C)C)cc4)cnc3N)on2)cc1 |  |  |  |  |  |  | 2170 nM and 1770 nM and 2020 nM | 97.3% and 93.8% and 100% | 102% and 98.4% and 99.4% | 103% and 105% and 101% | 96.6% and 96% and 97.9% | 71.3% and 64% and 69.4% | 41.7% and 38.1% and 39.8% |  |
| COc1cc(C)[nH]c(=O)c1CN1CCc2c(Cl)cc(C(OC)C3COC3)c(Cl)c2C1=O (stereo not drawn) | 76.2% and 80.4% and 95.5% | 52.4% and 56.5% and 66.3% | 35.7% and 33.3% and 42.5% | 30.3% and 28.9% and 35.6% | 28% and 18.8% and 33.9% | 26.9% and 19% and 31.9% | 118 nM and 138 nM and 223 nM |  |  |  |  |  |  |  |
| COc1cc2c(cc1O)CCNC21CSC2c3c(OC(C)=O)c(C)c4c(c3C(COC1=O)N1C(O)C3Cc5cc(C)c(OC)c(O)c5C(C21)N3C)OCO4 (stereo not drawn) |  |  |  |  |  |  |  |  |  |  |  |  |  | viability, T/C (compound 30 pM): 99.4% [middle of 10 runs]; viability, T/C (compound 0.0003 µM): 38.9% [middle of 10 runs]; viability, T/C (compound 0.000949 µM): 7.91% [middle of 10 runs]; viability, T/C (compound 0.003 µM): 0.12% [middle of 5 runs]; IC50 [2]: 0.233 nM [middle of 10 runs] |
| COc1ccc([C@@H](O)c2cc(-c3ncnc4cc(N5CCOCC5)ccc34)c(F)cc2Cl)nn1 | 101% and 107% and 106% | 91.2% and 94.8% and 97.8% | 82.3% and 92.2% and 94.8% | 50.2% and 63.6% and 69.6% | 22.2% and 24% and 31% | 11% and 10.1% and 15.4% | 1020 nM and 1480 nM and 1800 nM |  |  |  |  |  |  |  |
| Cc1cc(C)c(CNC(=O)c2cc(-c3ccc(CN4CCOCC4)cc3)cc3c2cnn3C2CCCC2)c(=O)[nH]1 | 106% and 105% and 95.6% | 111% and 102% and 98.5% | 108% and 107% and 106% | 113% and 97.5% and 91.4% | 98.1% and 91.5% and 77.8% | 44.2% and 44.8% and 57.8% | 8840 nM and 8810 nM and > 10000 nM |  |  |  |  |  |  |  |
| Cc1sc2c(c1C)C(c1ccc(Cl)cc1)=NC(CC(=O)Nc1ccc(O)cc1)c1nnc(C)n1-2 (stereo not drawn) |  |  |  |  |  |  | 173 nM and 122 nM and 192 nM | 93.3% and 106% and 91.1% | 86.6% and 75.1% and 80.9% | 65.4% and 56.4% and 67.6% | 34.7% and 35.5% and 37.8% | 20.1% and 20% and 21.8% | 10% and 11.8% and 7.68% |  |
| Cn1ncnc1[C@H]1c2n[nH]c(=O)c3cc(F)cc(c23)N[C@@H]1c1ccc(F)cc1 |  |  |  |  |  |  | 49 nM and 143 nM and 120 nM | 70.3% and 90% and 80.4% | 54.4% and 75.6% and 67% | 43.7% and 56% and 56.1% | 28.6% and 38.6% and 34.7% | 17.3% and 23.2% and 21.1% | 12.2% and 14.5% and 11.7% |  |
| Cn1nnc2c(C(N)=O)ncn2c1=O |  |  |  | 102% [middle of 10 runs] | 102% [middle of 10 runs] | 103% [middle of 10 runs] |  |  |  |  |  |  |  | viability, T/C (compound 31.6 µM): 96.8% [middle of 10 runs]; viability, T/C (compound 100 µM): 94.8% [middle of 9 runs]; IC50 [1]: > 100000 nM |
| O=C(c1cc(Cc2n[nH]c(=O)c3ccccc23)ccc1F)N1CCN(C(=O)C2CC2)CC1 |  |  |  |  |  |  | 13900 nM and 9390 nM and 14200 nM |  |  | 98.3% and 98.6% and 96.5% | 97.5% and 84.9% and 91.2% | 96.1% and 86.9% and 105% | 83.7% and 82.5% and 87% | viability, T/C (compound 9.49 µM): 54.9% and 49.4% and 58.5%; viability, T/C (compound 30 µM): 40.1% and 28.5% and 34.9% |
| [2H]c1nc(C)nc([2H])c1-c1cc(NC[C@@H](C)c2cccc3c(C(=O)NC)ccnc23)ncn1 | 104% and 105% and 96.6% | 108% and 98.9% and 97.7% | 103% and 105% and 98.1% | 102% and 98.9% and 98.6% | 105% and 103% and 98.3% | 104% and 103% and 98% | > 10000 nM |  |  |  |  |  |  |  |
